Where two headings read alike, the source gives them in different places.

Type in all cases: cell-based
The target of assay [1] is T1, ΔF508-CFTR (Homo sapiens, UniProt P13569, DEL508-508).
T1 construct: host or cells: CFBE41o-, doxycycline-inducible
Kind of assay: CFTR cell surface levels using HRP-tagged ΔF508-CFTR expressing CFBE cells, in the presence of a co-corrector. To be noted: HRP-tagged ΔF508-CFTR CFBE cells, in the presence of 3 μM co-corrector; for EC50: read-out: EC50. A digest of the protocol:
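Chemiluminescent read-out of surface HRP (15 min, dark) after PBS washes. Activity is normalized as 100×(sample−DMSO)/(3 μM co-corrector alone−DMSO).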

The target in assay [2] is T1, ΔF508-CFTR. Kind of assay: CFTR cell surface levels using HRP-tagged ΔF508-CFTR expressing CFBE cells, intrinsic corrector capacity. Details: % Activation: concentration or dose not given beside the values. To be noted: HRP-tagged ΔF508-CFTR expressing CFBE41o- cells, compound alone (intrinsic corrector capacity), 20 hours at 33° C.; for EC50: read-out: EC50. An outline of the steps: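 Surface ΔF508-CFTR was measured as HRP chemiluminescence from an extracellular-loop-4 tag, expressed as percent activity between DMSO and a […] corrector control.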

Another assay concerns the target T2, CFTR ΔF508 (Homo sapiens, UniProt P13569, DEL508-508).
T2 construct: bronchial epithelial cells isolated from CF patients homozygous for the CFTR ΔF508 mutation; McGill University; Asterand; University of North Carolina hAEC-CF; host or cells: primary human bronchial epithelial cells from CF patients homozygous for ΔF508, differentiated at air-liquid interface
Kind of assay: Chronic TECC assay, primary bronchial epithelial cells of CF patients homozygous for CFTR ΔF508 (corrector, co-corrector and potentiator). To be noted: chronic TECC. As to the method:
Primary Bronchial Epithelial Cells Protocol
The TECC (Tranepithelial Clamp Circuit, EP-design) assay measures the functionality of the cystic fibrosis Transmembrane Conductance regulator (CFTR) by measuring the short circuit current (Isc) generated over the basolateral and apical membrane of lung epithelial cells. In TECC the transepithelial potential PD and transepithelial resistance (Rt) are measured in an open circuit and transformed to Ieq using Ohm's law. 24 Wells can be measured simultaneously allowing a higher throughput compared to Ussing chambers.
For this purpose, bronchial epithelial cells isolated from CF patients homozygous for the CFTR ΔF508 mutation (hAEC-CF, Epithelix, Geneva, Switzerland; McGill University, Montreal, Qc; Asterand, Detroit, Mich.; University of North Carolina, Chapel Hill, N.C.) are plated on type IV collagen-coated Transwell® supports (Costar).
For electrophysiological recording of the “chronic” experiments, the human airway epithelia are mounted in the TECC heating plate for electrophysiological measurement and kept at 37° C. The epithelia are bathed in a NaCl-Ringer solution (120 mM NaCl, 25 mM NaHCO3, 1.2 mM CaCl2, 1.2 mM MgCl2, 0.8 mM KH2PO4, 0.8 mM K2HPO4, pH 7.4, 5 mM glucose) on both the basolateral and apical sides. Test compounds (corrector, co-corrector, 4-[(2R,4R)-4-({[1-(2,2-difluoro-1,3-benzodioxol-5-yl)cyclopropyl]carbonyl}amino)-7-(difluoromethoxy)-3,4-dihydro-2H-chromen-2-yl]benzoic acid, and potentiator, N-(3-carbamoyl-5,5,7,7-tetramethyl-4,7-dihydro-5H-thieno[2,3-c]pyran-2-yl)-1H-pyrazole-5-carboxamide), are re-added to the recording solution prior to measurement. […] Apical amiloride is used to inhibit the endogenous ENaC currents while forskolin is applied on both apical and basolateral side to stimulate CFTR. Measurements are done during a 20 minute timeframe with recordings every 2 minutes. The increase in Ieq is used as a measure for the increased CFTR activity, EC50 values can be generated by measuring impact of different concentrations of compound on Ieq on primary cells, for this purpose each transwell is treated with a different compound concentration. […] Raw data were normalized to percentage activity values using the equation: 100×(Sample−Negative control)/(Positive control−Negative Control).

Setting [3] is: Ieq = calculations based on the maximum current, read-out: EC50 (nM) (Ieq*).
The mark [4] stands for this setting: test compound at 1 μM, Ieq = calculations based on the maximum current.

T1 sequence (P13569 with tags, fused parts or gaps DEL508-508): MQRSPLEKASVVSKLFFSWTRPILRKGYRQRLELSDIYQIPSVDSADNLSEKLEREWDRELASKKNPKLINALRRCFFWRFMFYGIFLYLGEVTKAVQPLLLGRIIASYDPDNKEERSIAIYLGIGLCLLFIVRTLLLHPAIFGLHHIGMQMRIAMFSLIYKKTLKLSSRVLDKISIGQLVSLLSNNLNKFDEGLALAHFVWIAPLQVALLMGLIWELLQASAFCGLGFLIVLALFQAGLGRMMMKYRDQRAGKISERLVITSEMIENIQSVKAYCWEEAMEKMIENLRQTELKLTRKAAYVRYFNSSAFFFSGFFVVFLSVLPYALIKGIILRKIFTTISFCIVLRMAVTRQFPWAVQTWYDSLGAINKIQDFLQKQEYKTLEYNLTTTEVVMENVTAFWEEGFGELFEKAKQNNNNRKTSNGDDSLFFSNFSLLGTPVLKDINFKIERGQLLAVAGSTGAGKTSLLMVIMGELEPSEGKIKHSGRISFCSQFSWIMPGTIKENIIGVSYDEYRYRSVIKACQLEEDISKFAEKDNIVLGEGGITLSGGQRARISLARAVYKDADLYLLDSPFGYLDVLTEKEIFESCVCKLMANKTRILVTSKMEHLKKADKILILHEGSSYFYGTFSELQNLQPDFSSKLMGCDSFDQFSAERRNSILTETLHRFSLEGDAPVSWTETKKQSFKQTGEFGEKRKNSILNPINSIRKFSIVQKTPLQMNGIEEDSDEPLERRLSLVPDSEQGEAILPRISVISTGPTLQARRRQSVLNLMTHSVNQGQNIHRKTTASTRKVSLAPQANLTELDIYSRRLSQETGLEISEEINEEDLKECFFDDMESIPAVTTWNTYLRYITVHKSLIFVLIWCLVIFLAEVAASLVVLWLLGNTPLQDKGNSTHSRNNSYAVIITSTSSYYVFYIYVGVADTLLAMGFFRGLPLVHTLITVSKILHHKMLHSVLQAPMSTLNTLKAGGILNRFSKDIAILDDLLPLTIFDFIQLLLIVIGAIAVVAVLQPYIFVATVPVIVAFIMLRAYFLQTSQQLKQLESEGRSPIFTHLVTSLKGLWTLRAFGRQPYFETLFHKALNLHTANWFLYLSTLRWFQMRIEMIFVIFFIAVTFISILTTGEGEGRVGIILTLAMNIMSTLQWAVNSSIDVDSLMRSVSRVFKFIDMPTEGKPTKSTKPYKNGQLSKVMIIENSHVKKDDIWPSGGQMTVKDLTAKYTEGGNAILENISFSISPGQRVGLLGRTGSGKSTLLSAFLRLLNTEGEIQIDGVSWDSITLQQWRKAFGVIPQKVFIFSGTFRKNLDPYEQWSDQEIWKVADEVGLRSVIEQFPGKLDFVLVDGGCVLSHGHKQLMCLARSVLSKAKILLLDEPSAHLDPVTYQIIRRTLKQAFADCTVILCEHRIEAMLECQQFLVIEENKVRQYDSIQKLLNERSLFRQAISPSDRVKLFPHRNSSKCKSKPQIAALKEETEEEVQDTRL
T2 sequence (P13569 with tags, fused parts or gaps DEL508-508): as above

Take `CC(C)c1nn(-c2cccc(N(C)C)c2)c2nc(C(=O)NS(C)(=O)=O)cc(-c3cnc(N4CCC(C#N)CC4)nc3)c12` [Compound 95, 4-[2-(4-cyanopiperidin-1-yl)pyrimidin-5-yl]-1-[3-(dimethylamino)phenyl]-N-(methanesulfonyl)-3-(propan-2-yl)-1H-pyrazolo[3,4-b]pyridine-6-carboxamide]: the results for the “% Activation” value at ΔF508-CFTR [1] and at ΔF508-CFTR [2] were 611.7% and 355.6%, respectively. The results for the EC50 at ΔF508-CFTR [1], on ΔF508-CFTR [2] and on CFTR ΔF508 (setting [3]) were 649 nM, 838 nM and 10 nM, respectively. On CFTR ΔF508 (setting [4]), the “% Activity at 1 μM (Ieq*)” value is listed as 180%.
As for `CC(C)c1nn(-c2cccc(N(C)C)c2)c2nc(C(=O)NS(C)(=O)=O)cc(-c3ccc(N(C)C4CCOCC4)cc3)c12` [Compound 96, 1-[3-(dimethylamino)phenyl]-N-(methanesulfonyl)-4-{4-[methyl(oxan-4-yl)amino]phenyl}-3-(propan-2-yl)-1H-pyrazolo[3,4-b]pyridine-6-carboxamide], the figures for the “% Activation” value on ΔF508-CFTR [1] and on ΔF508-CFTR [2] were 707.5% and 406.6%, respectively. The EC50 is 473 nM on ΔF508-CFTR [1], 367 nM on ΔF508-CFTR [2] and less than 30 nM on CFTR ΔF508 (setting [3]). Also, on CFTR ΔF508 (setting [4]), the “% Activity at 1 μM (Ieq*)” value was 310%.
For the compound `CC(C)c1nn(-c2cccc(N3CCCC3)c2)c2nc(C(=O)NS(C)(=O)=O)cc(-c3ccc(N(C)C4CCOCC4)cc3)c12` [Compound 110, N-(methanesulfonyl)-4-{4-[methyl(oxan-4-yl)amino]phenyl}-3-(propan-2-yl)-1-[3-(pyrrolidin-1-yl)phenyl]-1H-pyrazolo[3,4-b]pyridine-6-carboxamide], the figures for the “% Activation” value on ΔF508-CFTR [1] and at ΔF508-CFTR [2] were 665.7% and 451.8%, respectively. Also, the EC50 on ΔF508-CFTR [1] was 336 nM; at ΔF508-CFTR [2], 358 nM; on CFTR ΔF508 (setting [3]), less than 30 nM. At CFTR ΔF508 (setting [4]), the “% Activity at 1 μM (Ieq*)” value is reported as 170%.
As to `CCS(=O)(=O)NC(=O)c1cc(-c2ccc(N3CCOCC3)cc2)c2c(C)nn(-c3ccc(F)cc3F)c2n1` [Compound 113, 1-(2,4-difluorophenyl)-N-(ethanesulfonyl)-3-methyl-4-[4-(morpholin-4-yl)phenyl]-1H-pyrazolo[3,4-b]pyridine-6-carboxamide], the “% Activation” value at ΔF508-CFTR [1] was found to be 455.63%; on ΔF508-CFTR [2] it was 262.33%. Further, the EC50 is 235 nM on ΔF508-CFTR [1], 464 nM on ΔF508-CFTR [2] and 32 nM on CFTR ΔF508 (setting [3]). Also, the “% Activity at 1 μM (Ieq*)” value on CFTR ΔF508 (setting [4]) was 310%.
In the case of `COC1CCN(c2cc(C(=O)NS(C)(=O)=O)nc3c2c(C(C)C)nn3-c2cccc(C)c2)CC1` [Compound 117, N-(methanesulfonyl)-4-(4-methoxypiperidin-1-yl)-1-(3-methylphenyl)-3-(propan-2-yl)-1H-pyrazolo[3,4-b]pyridine-6-carboxamide], the entries for the “% Activation” value at ΔF508-CFTR [1] and on ΔF508-CFTR [2] were 417.92% and 281.88%, respectively. For the same compound, the EC50 was 200 nM on ΔF508-CFTR [1], 333 nM on ΔF508-CFTR [2] and more than 1000 nM at CFTR ΔF508 (setting [3]). Also, the “% Activity at 1 μM (Ieq*)” value at CFTR ΔF508 (setting [4]) was 81%.
Regarding `CC(C)c1nn(C2CCCCC2)c2nc(C(=O)NS(C)(=O)=O)cc(-c3cnc(N4CCC(C#N)CC4)nc3)c12` [Compound 119, 4-[2-(4-cyanopiperidin-1-yl)pyrimidin-5-yl]-1-cyclohexyl-N-(methanesulfonyl)-3-(propan-2-yl)-1H-pyrazolo[3,4-b]pyridine-6-carboxamide], the figures for the “% Activation” value on ΔF508-CFTR [1] and at ΔF508-CFTR [2] were 389.93% and 188.53%, respectively. Besides, the values for the EC50 on ΔF508-CFTR [1], on ΔF508-CFTR [2] and at CFTR ΔF508 (setting [3]) were 331 nM, 520 nM and more than 1000 nM, respectively. Moreover, the “% Activity at 1 μM (Ieq*)” value at CFTR ΔF508 (setting [4]) is recorded as 157%.
Take `COCCN(CCOC)c1ccc(-c2cc(C(=O)NS(C)(=O)=O)nc3c2c(C(C)C)nn3C2CCCCC2)cn1` [Compound 121, 4-{6-[bis(2-methoxyethyl)amino]pyridin-3-yl}-1-cyclohexyl-N-(methanesulfonyl)-3-(propan-2-yl)-1H-pyrazolo[3,4-b]pyridine-6-carboxamide]: the entries for the “% Activation” value on ΔF508-CFTR [1] and at ΔF508-CFTR [2] were 368.6% and 159.13%, respectively. Besides, the EC50 at ΔF508-CFTR [1] was 282 nM; at ΔF508-CFTR [2], 653 nM; on CFTR ΔF508 (setting [3]) it was 74 nM. Moreover, the “% Activity at 1 μM (Ieq*)” value at CFTR ΔF508 (setting [4]) is given as 206%.
As to `CC(C)c1nn(-c2cccc(N3CCOCC3)n2)c2nc(C(=O)NS(C)(=O)=O)cc(-c3ccc(N4CCOCC4)cc3)c12` [Compound 128, N-(methanesulfonyl)-4-[4-(morpholin-4-yl)phenyl]-1-[6-(morpholin-4-yl)pyridin-2-yl]-3-(propan-2-yl)-1H-pyrazolo[3,4-b]pyridine-6-carboxamide], the results for the “% Activation” value on ΔF508-CFTR [1] and at ΔF508-CFTR [2] were 529.57% and 357.47%, respectively. Moreover, the values for the EC50 at ΔF508-CFTR [1], at ΔF508-CFTR [2] and on CFTR ΔF508 (setting [3]) were 252 nM, 516 nM and less than 30 nM, respectively. Besides, the “% Activity at 1 μM (Ieq*)” value at CFTR ΔF508 (setting [4]) is given as 235%.
For the compound `CC(C)c1nn(-c2ccnc(N3CCOCC3)c2)c2nc(C(=O)NS(C)(=O)=O)cc(-c3ccc(N4CCOCC4)cc3)c12` [Compound 136, N-(methanesulfonyl)-4-[4-(morpholin-4-yl)phenyl]-1-[2-(morpholin-4-yl)pyridin-4-yl]-3-(propan-2-yl)-1H-pyrazolo[3,4-b]pyridine-6-carboxamide], the figures for the “% Activation” value at ΔF508-CFTR [1] and on ΔF508-CFTR [2] were 428.1% and 262.38%, respectively. In addition, the EC50 at ΔF508-CFTR [1] came to 72.3 nM; at ΔF508-CFTR [2], 155 nM; on CFTR ΔF508 (AUC = full area under the curve upon forskolin stimulation, read-out: EC50 (nM) (AUC**)) it was 23.5 nM. Moreover, at CFTR ΔF508 (test compound at 1 μM, AUC = full area under the curve upon forskolin stimulation), the “% Activity at 1 μM (AUC**)” value came to 233.2%.
As to `COCC1CCN(c2cc(C(=O)NS(C)(=O)=O)nc3c2c(C(C)C)nn3-c2cccc(N(C)C)c2)CC1` [Compound 144, 1-[3-(dimethylamino)phenyl]-N-(methanesulfonyl)-4-[4-(methoxymethyl)piperidin-1-yl]-3-(propan-2-yl)-1H-pyrazolo[3,4-b]pyridine-6-carboxamide], the “% Activation” value is recorded as 674.7% at ΔF508-CFTR [1] and 531.6% on ΔF508-CFTR [2]. The EC50 on ΔF508-CFTR [1] was 243 nM; at ΔF508-CFTR [2], 417 nM; at CFTR ΔF508 (setting [3]), 12 nM. Moreover, the “% Activity at 1 μM (Ieq*)” value at CFTR ΔF508 (setting [4]) is 350%.
Turning to `COCCS(=O)(=O)NC(=O)c1cc(N2CCC(OC)CC2)c2c(C3CCC3)nn(-c3ccccc3)c2n1` [Compound 146, 3-cyclobutyl-N-(2-methoxyethanesulfonyl)-4-(4-methoxypiperidin-1-yl)-1-phenyl-1H-pyrazolo[3,4-b]pyridine-6-carboxamide], the entries for the “% Activation” value at ΔF508-CFTR [1] and on ΔF508-CFTR [2] were 357.55% and 201.23%, respectively. Also, the values for the EC50 on ΔF508-CFTR [1], on ΔF508-CFTR [2] and at CFTR ΔF508 (setting [3]) were 96.9 nM, 356 nM and 30 nM, respectively. Further, on CFTR ΔF508 (setting [4]), the “% Activity at 1 μM (Ieq*)” value is 310%.
On to `COC1CCN(c2cc(C(=O)NS(C)(=O)=O)nc3c2c(C(C)C)nn3C2CCCCC2)CC1` [Compound 150, 1-cyclohexyl-N-(methanesulfonyl)-4-(4-methoxypiperidin-1-yl)-3-(propan-2-yl)-1H-pyrazolo[3,4-b]pyridine-6-carboxamide], for which the “% Activation” value on ΔF508-CFTR [1] is 380.65%; on ΔF508-CFTR [2], 220.98%. The EC50 at ΔF508-CFTR [1] was 318 nM; on ΔF508-CFTR [2], 576 nM; on CFTR ΔF508 (setting [3]), 100 nM.

For orientation: EC50 means the midpoint of the concentration-response curve.
